Columns and labels:
[1] = tested on: glucuronidase; assay: Half-life in the presence of Escherichia coli -glucuronidase; format: ADME; conditions: Escherichia coli glucuronidase enzyme
[2] = Half-life when incubated at 37 C in 0.05 M phosphate buffer, pH 7.4, the concentration of 12 uM,; format: ADME

half-life [1]: 1.7 h
half-life at 12 µM [2]: 30 h
Compound: CCOC(CCCN)O[C@@H]1O[C@H](C(=O)[O-])[C@@H](O)[C@H](O)[C@H]1O.[Na+] (some centres not stated)
